Measured values: ChEMBL document CHEMBL1123377, “Potent antagonists of vasopressin antidiuretic activity that lack the beta,beta-cyclopentamethylene-beta-mercaptopropionic acid substitution at position 1” (J Med Chem, 1986)
pKi: −log10 of the molar value. Calls of active or inactive are those of the source. The calls are words filed in the database; no cut-off is given here.

Key:
Sus scrofa = species on record: Sus scrofa; experiment: Compound was tested for adenylate cyclase activation in pig renal medullary membrane preparations.; assay type: functional; settings: Renal medulla
Rattus norvegicus [1] = experiment: Compound was tested in vivo to lower urine osmolality to 300 mOsm/kg in hydropenic rat preparation; na=No activity; assay type: functional, organism-based
[2] = biological target: Vasopressin V2 receptor (Sus scrofa) (UniProt P32307); experiment: Compound was tested for binding affinity against V2 vasopressin receptor in pig renal medullary membrane preparations using tritiated LVP.; assay type: cell membranes; settings: Renal medulla
Vasopressin V2 receptor [3] = biological target: T1, Vasopressin V2 receptor (Sus scrofa, UniProt P32307); experiment: Compound was tested for inhibition against V2 vasopressin receptor in pig renal medullary membrane preparations; e=Partial agonist with a relative Vmax of 14%.; assay type: functional, cell membranes, Renal medulla
Rattus norvegicus [4] = experiment: Compound was tested in vivo to lower urine osmolality to 300 mOsm/kg in hydropenic rat preparation.; assay type: functional
Vasopressin V2 receptor [5] = biological target: T1, Vasopressin V2 receptor; experiment: Compound was tested for inhibition against V2 vasopressin receptor in pig renal medullary membrane preparations.; assay type: cell membranes, Renal medulla

T1 sequence (P32307 whole entry): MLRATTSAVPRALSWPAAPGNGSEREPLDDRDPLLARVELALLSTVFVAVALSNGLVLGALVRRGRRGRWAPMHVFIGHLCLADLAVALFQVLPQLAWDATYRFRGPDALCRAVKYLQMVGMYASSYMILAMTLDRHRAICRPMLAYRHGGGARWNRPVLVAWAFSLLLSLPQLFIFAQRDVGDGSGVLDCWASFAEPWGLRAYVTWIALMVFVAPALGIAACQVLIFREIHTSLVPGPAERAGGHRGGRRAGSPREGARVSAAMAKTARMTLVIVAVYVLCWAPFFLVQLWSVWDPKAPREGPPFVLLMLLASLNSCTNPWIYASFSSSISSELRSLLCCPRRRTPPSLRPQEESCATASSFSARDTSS
Chain of Vasopressin V2 receptor (Sus scrofa) (P32307 whole entry): as above

K bind [2] [nM]	Structure (SMILES)	ED300 (Rattus norvegicus [4]) [mg/kg]	also measured
39	CCOc1ccc(C[C@H]2NC(=O)CC(C)(C)SSC[C@H](C(=O)N3CCC[C@H]3C(=O)N[C@H](CCCN=C(N)N)C(=O)NCC(N)=O)NC(=O)[C@@H](CC(N)=O)NC(=O)[C@H](C(C)C)NC(=O)[C@@H](Cc3ccccc3)NC2=O)cc1	–	K act (Sus scrofa): 79 nM; ED300 (Rattus norvegicus [1]): inactive; Ki (Vasopressin V2 receptor [3]): Partial agonist
450	CCOc1ccc(C[C@@H]2NC(=O)CC(CC)(CC)SSC[C@H](C(=O)N3CCC[C@H]3C(=O)N[C@H](CCCN=C(N)N)C(N)=O)NC(=O)[C@@H](CC(N)=O)NC(=O)[C@H](C(C)C)NC(=O)[C@@H](Cc3ccccc3)NC2=O)cc1	0.12	–
30	CCOc1ccc(C[C@H]2NC(=O)CC(CC)(CC)SSC[C@H](C(=O)N3CCC[C@H]3C(=O)N[C@H](CCCN=C(N)N)C(N)=O)NC(=O)[C@@H](CC(N)=O)NC(=O)[C@H](C(C)C)NC(=O)[C@@H](Cc3ccccc3)NC2=O)cc1	–	–

Further lines, the compound ahead of its results:

Structure (SMILES)	K bind [2] [nM]	ED300 (Rattus norvegicus [4]) [mg/kg]	also measured
CCOc1ccc(C[C@H]2NC(=O)CC3(CCCCC3)SSC[C@H](C(=O)N3CCC[C@H]3C(=O)N[C@H](CCCN=C(N)N)C(N)=O)NC(=O)[C@@H](CC(N)=O)NC(=O)[C@H](C(C)C)NC(=O)[C@@H](Cc3ccccc3)NC2=O)cc1	12	0.01	–
CCOc1ccc(C[C@H]2NC(=O)CC3(CCCCC3)SSC[C@@H](C(=O)N3CCC[C@H]3C(=O)N[C@@H](CCCN=C(N)N)C(=O)NCC(N)=O)NC(=O)[C@H](CC(N)=O)NC(=O)[C@H](C(C)C)NC(=O)[C@H](Cc3ccccc3)NC2=O)cc1	–	0.011	–
CCOc1ccc(C[C@H]2NC(=O)CC(CC)(CC)SSC[C@@H](C(=O)N3CCC[C@H]3C(=O)N[C@@H](CCCN=C(N)N)C(=O)NCC(N)=O)NC(=O)[C@H](CC(N)=O)NC(=O)[C@H](C(C)C)NC(=O)[C@H](Cc3ccccc3)NC2=O)cc1 [listing 1 of 2 here]	–	–	pKi (Vasopressin V2 receptor [5]): 8.28
CCOc1ccc(C[C@H]2NC(=O)CC(CC)(CC)SSC[C@H](C(=O)N3CCC[C@H]3C(=O)N[C@H](CCCN=C(N)N)C(=O)NCC(N)=O)NC(=O)[C@@H](CC(N)=O)NC(=O)[C@H](C(C)C)NC(=O)[C@@H](Cc3ccccc3)NC2=O)cc1	35	–	–
CCOc1ccc(C[C@@H]2NC(=O)CC3(CCCCC3)SSC[C@H](C(=O)N3CCC[C@H]3C(=O)N[C@H](CCCN=C(N)N)C(N)=O)NC(=O)[C@@H](CC(N)=O)NC(=O)[C@H](C(C)C)NC(=O)[C@@H](Cc3ccccc3)NC2=O)cc1	280	0.3	–
CCOc1ccc(C[C@H]2NC(=O)CC(CC)(CC)SSC[C@@H](C(=O)N3CCC[C@H]3C(=O)N[C@@H](CCCN=C(N)N)C(=O)NCC(N)=O)NC(=O)[C@H](CC(N)=O)NC(=O)[C@H](C(C)C)NC(=O)[C@H](Cc3ccccc3)NC2=O)cc1 [listing 2 of 2 here]	–	0.023	–
CCOc1ccc(C[C@H]2NC(=O)CC(CC)(CC)SSC[C@@H](C(=O)N3CCC[C@H]3C(=O)N[C@@H](CCCNC(=N)N)C(N)=O)NC(=O)[C@H](CC(N)=O)NC(=O)[C@H](C(C)C)NC(=O)[C@H](Cc3ccccc3)NC2=O)cc1	–	–	pKi (Vasopressin V2 receptor [5]): 8.05
CCOc1ccc(C[C@H]2NC(=O)CC3(CCCCC3)SSC[C@H](C(=O)N3CCC[C@H]3C(=O)N[C@H](CCCN=C(N)N)C(=O)NCC(N)=O)NC(=O)[C@@H](CC(N)=O)NC(=O)[C@H](C(C)C)NC(=O)[C@@H](Cc3ccccc3)NC2=O)cc1	12	–	–
CCOc1ccc(C[C@H]2NC(=O)CC(CC)(CC)SSC[C@@H](C(=O)N3CCC[C@H]3C(=O)N[C@@H](CCCN=C(N)N)C(N)=O)NC(=O)[C@H](CC(N)=O)NC(=O)[C@H](C(C)C)NC(=O)[C@H](Cc3ccccc3)NC2=O)cc1	–	0.012	–
